From the kinase profiling compilation of Christmann-Franck et al. (2016)

What was measured:
Assay in all cases: radiometric filter-binding kinase assay, Kinase HotSpot
Settings in all cases: compound 0.5 µM; ATP 10 µM
ACVRL1 (human) = ACVRL1 (human) (UniProt P37023)
MUSK (human) = MUSK (human) (UniProt O15146)
MAPK12 (human) = MAPK12 (human) (UniProt P53778)
AKT3 (human) = AKT3 (human) (UniProt Q9Y243)
CSNK1D (human) = CSNK1D (human) (UniProt P48730)
DDR2 (human) = DDR2 (human) (UniProt Q16832)
OXSR1 (human) = OXSR1 (human) (UniProt O95747)
WNK3 (human) = WNK3 (human) (UniProt Q9BYP7)
CHUK (human) = CHUK (human) (UniProt O15111)
STK33 (human) = STK33 (human) (UniProt Q9BYT3)
Chain of STK33 (human) (Q9BYT3 whole entry, looked up): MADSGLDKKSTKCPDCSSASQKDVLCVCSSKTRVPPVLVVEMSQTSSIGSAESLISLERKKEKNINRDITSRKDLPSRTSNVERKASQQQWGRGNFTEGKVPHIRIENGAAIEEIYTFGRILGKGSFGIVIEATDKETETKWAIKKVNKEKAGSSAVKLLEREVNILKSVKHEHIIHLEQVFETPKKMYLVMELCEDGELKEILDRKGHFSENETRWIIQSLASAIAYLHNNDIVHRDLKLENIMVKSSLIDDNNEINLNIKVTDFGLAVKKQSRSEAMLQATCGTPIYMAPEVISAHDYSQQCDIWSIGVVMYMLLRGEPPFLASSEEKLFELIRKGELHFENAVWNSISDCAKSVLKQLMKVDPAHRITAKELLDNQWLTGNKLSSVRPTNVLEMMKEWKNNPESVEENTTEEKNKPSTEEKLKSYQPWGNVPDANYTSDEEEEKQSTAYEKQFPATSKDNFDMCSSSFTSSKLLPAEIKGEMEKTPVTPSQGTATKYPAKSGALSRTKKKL

FYN (human) = FYN (human) (UniProt P06241)
DSTYK (human) = DSTYK (human) (UniProt Q6XUX3)
MARK3 (human) = MARK3 (human) (UniProt P27448)
Chain of MARK3 (human) (P27448 whole entry, looked up): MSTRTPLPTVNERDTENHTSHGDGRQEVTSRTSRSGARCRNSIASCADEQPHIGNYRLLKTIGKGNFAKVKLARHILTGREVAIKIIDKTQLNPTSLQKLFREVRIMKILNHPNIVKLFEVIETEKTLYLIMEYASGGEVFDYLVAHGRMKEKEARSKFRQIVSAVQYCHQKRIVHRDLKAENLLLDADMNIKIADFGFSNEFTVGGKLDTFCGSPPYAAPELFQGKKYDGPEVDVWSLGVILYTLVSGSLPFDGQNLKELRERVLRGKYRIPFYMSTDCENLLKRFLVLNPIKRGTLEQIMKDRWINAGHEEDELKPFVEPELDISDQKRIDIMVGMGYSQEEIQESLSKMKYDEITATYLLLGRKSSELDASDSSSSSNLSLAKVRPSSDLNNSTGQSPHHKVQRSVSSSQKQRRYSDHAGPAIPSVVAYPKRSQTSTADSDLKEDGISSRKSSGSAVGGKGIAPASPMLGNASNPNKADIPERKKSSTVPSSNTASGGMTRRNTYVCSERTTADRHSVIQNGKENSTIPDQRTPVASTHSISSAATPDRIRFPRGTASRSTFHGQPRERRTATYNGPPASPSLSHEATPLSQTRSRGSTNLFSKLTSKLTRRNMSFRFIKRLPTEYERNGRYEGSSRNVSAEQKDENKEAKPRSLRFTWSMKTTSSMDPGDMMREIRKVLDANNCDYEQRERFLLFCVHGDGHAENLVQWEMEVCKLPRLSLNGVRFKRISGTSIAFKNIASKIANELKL

MAPKAPK3 (human) = MAPKAPK3 (human) (UniProt Q16644)
GRK6 (human) = GRK6 (human) (UniProt P43250)
CSNK1G1 (human) = CSNK1G1 (human) (UniProt Q9HCP0)
TAOK3 (human) = TAOK3 (human) (UniProt Q9H2K8)
HCK (human) = HCK (human) (UniProt P08631)
TSSK1B (human) = TSSK1B (human) (UniProt Q9BXA7)
Chain of TSSK1B (human) (Q9BXA7 whole entry, looked up): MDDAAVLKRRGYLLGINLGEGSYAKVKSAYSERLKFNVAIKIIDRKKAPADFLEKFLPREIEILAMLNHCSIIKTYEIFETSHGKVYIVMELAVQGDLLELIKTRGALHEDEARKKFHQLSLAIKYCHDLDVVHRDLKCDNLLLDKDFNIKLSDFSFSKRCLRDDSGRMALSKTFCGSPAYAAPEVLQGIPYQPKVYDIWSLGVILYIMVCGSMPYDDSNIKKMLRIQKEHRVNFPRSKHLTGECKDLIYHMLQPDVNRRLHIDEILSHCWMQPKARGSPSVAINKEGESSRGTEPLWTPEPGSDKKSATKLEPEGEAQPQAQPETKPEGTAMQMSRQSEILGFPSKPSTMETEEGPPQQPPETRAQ

MAPK13 (human) = MAPK13 (human) (UniProt O15264)
CDK9 CCNK (human) = CDK9 CCNK (human) (UniProt O75909+P50750)
Chain of CDK9 CCNK (human) (O75909 whole entry, looked up): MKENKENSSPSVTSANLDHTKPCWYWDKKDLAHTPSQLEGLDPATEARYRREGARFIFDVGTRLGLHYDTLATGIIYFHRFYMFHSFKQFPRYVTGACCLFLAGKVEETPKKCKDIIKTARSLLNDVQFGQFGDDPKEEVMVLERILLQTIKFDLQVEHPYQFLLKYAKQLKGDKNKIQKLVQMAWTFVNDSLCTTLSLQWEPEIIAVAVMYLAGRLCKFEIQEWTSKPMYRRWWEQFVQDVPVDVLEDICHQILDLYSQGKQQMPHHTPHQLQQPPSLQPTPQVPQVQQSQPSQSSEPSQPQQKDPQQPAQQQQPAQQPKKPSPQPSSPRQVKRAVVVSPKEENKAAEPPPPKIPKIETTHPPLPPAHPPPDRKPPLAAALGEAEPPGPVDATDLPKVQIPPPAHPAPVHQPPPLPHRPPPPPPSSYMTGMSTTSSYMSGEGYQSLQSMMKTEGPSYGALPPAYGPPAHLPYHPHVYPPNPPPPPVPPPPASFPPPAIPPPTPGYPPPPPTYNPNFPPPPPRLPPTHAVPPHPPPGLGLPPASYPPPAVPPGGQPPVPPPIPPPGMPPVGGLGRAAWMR
Chain of CDK9 CCNK (human) (P50750 whole entry, looked up): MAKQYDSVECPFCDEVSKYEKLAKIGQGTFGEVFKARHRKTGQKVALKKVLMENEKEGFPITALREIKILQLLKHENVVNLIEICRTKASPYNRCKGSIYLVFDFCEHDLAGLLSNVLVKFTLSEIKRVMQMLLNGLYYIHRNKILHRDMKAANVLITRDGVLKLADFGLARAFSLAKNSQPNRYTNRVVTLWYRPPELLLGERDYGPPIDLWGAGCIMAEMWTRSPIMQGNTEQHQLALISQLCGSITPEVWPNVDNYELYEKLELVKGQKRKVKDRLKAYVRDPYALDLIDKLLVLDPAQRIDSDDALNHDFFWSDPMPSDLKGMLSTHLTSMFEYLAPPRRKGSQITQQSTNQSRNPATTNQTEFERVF

PHKG2 (human) = PHKG2 (human) (UniProt P15735)
TAOK2 (human) = TAOK2 (human) (UniProt Q9UL54)
MERTK (human) = MERTK (human) (UniProt Q12866)
LIMK1 (human) = LIMK1 (human) (UniProt P53667)
DYRK2 (human) = DYRK2 (human) (UniProt Q92630)
GSK3B (human) = GSK3B (human) (UniProt P49841)
MARK2 (human) = MARK2 (human) (UniProt Q7KZI7)
RPS6KA4 KD2 (human) = RPS6KA4 KD2 (human) (UniProt O75676)
JAK2 JH1 JH2 (human) = JAK2 JH1 JH2 (human) (UniProt O60674)
CSNK2A2 (human) = CSNK2A2 (human) (UniProt P19784)
DAPK1 (human) = DAPK1 (human) (UniProt P53355)
Chain of DAPK1 (human) (P53355 whole entry, looked up): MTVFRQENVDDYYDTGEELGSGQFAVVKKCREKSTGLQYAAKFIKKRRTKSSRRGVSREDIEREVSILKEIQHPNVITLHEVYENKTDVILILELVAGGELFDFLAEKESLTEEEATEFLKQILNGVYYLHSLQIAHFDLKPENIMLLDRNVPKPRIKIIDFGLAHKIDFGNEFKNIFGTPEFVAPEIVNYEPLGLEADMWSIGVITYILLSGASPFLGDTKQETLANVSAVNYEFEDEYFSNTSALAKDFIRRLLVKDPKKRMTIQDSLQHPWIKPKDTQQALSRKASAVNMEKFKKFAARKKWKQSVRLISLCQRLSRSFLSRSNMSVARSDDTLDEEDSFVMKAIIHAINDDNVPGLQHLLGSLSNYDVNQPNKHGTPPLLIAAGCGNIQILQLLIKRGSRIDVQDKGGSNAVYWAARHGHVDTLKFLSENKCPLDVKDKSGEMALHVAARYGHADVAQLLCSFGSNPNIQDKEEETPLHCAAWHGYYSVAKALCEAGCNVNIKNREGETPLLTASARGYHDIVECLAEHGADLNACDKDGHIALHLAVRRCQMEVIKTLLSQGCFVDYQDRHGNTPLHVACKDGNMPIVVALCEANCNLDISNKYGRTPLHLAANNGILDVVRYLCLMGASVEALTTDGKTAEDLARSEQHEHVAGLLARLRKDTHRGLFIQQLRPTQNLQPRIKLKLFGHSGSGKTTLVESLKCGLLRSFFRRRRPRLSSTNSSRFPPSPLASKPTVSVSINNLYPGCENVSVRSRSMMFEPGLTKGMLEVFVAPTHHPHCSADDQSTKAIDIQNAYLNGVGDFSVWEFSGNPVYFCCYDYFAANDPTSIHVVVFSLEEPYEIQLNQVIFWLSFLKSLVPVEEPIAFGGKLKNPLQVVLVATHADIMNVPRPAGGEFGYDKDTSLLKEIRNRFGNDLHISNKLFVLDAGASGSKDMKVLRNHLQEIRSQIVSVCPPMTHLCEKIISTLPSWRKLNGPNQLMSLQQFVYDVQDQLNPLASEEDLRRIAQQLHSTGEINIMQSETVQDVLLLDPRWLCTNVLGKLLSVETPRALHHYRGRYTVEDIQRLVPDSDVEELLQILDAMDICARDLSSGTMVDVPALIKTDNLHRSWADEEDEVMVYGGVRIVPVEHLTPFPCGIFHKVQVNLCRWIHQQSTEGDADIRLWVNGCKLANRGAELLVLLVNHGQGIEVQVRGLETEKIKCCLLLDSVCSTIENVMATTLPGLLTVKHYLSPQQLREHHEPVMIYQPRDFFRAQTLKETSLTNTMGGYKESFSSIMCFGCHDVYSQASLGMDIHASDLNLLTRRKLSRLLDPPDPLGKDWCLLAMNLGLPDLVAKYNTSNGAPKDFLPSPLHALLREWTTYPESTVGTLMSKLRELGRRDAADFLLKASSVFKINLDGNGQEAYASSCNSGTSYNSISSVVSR

PRKG2 (human) = PRKG2 (human) (UniProt Q13237)
DYRK1A (human) = DYRK1A (human) (UniProt Q13627)
CAMK4 (human) = CAMK4 (human) (UniProt Q16566)
Chain of CAMK4 (human) (Q16566 whole entry, looked up): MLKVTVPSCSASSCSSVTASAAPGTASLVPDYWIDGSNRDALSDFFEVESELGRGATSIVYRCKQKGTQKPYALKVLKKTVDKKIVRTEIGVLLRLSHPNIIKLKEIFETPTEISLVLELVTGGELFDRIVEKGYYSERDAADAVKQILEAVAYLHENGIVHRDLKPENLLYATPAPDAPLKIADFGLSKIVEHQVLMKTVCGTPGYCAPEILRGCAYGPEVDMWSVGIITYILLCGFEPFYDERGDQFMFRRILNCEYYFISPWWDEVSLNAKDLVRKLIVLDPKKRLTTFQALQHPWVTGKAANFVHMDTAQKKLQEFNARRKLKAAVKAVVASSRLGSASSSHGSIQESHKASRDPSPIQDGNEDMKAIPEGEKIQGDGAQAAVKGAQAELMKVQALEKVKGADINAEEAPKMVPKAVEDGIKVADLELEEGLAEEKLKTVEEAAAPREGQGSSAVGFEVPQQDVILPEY

PTK2B (human) = PTK2B (human) (UniProt Q14289)
NTRK2 (human) = NTRK2 (human) (UniProt Q16620)
AXL (human) = AXL (human) (UniProt P30530)
IRAK1 (human) = IRAK1 (human) (UniProt P51617)
NTRK3 (human) = NTRK3 (human) (UniProt Q16288)
NEK4 (human) = NEK4 (human) (UniProt P51957)
WEE1 (human) = WEE1 (human) (UniProt P30291)

Chain of ACVRL1 (human) (P37023 whole entry, looked up): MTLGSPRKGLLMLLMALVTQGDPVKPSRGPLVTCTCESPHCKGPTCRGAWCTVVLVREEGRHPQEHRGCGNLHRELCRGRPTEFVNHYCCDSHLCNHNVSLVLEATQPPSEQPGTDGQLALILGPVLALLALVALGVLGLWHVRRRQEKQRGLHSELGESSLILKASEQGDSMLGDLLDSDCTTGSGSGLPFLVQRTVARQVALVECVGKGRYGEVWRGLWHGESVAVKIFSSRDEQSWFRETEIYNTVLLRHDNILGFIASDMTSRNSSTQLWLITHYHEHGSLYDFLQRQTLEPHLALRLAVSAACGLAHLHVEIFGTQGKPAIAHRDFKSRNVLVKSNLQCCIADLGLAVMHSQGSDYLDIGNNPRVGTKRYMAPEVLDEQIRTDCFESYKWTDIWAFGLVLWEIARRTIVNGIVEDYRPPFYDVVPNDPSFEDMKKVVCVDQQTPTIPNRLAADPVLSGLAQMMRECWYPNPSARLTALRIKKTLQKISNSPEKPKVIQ

Structure (SMILES): CN(C)c1ccc(/C=C2\C(=O)Nc3ccccc32)cc1
- residual activity (ACVRL1 (human)): 104%
- residual activity (MUSK (human)): 96.4%
- residual activity (MAPK12 (human)): 102%
- residual activity (AKT3 (human)): 103%
- residual activity (CSNK1D (human)): 69%
- residual activity (DDR2 (human)): 103%
- residual activity (OXSR1 (human)): 106%
- residual activity (WNK3 (human)): 98.1%
- residual activity (CHUK (human)): 93.4%
- residual activity (STK33 (human)): 99.8%
- residual activity (FYN (human)): 104%
- residual activity (DSTYK (human)): 103%
- residual activity (MARK3 (human)): 101%
- residual activity (MAPKAPK3 (human)): 100%
- residual activity (GRK6 (human)): 102%
- residual activity (CSNK1G1 (human)): 93%
- residual activity (TAOK3 (human)): 95.1%
- residual activity (HCK (human)): 110%
- residual activity (TSSK1B (human)): 102%
- residual activity (MAPK13 (human)): 97.1%
- residual activity (CDK9 CCNK (human)): 100%
- residual activity (PHKG2 (human)): 95.9%
- residual activity (TAOK2 (human)): 102%
- residual activity (MERTK (human)): 92.7%
- residual activity (LIMK1 (human)): 97.7%
- residual activity (DYRK2 (human)): 100%
- residual activity (GSK3B (human)): 111%
- residual activity (MARK2 (human)): 105%
- residual activity (RPS6KA4 KD2 (human)): 95.2%
- residual activity (JAK2 JH1 JH2 (human)): 94.8%
- residual activity (CSNK2A2 (human)): 98.6%
- residual activity (DAPK1 (human)): 92.2%
- residual activity (PRKG2 (human)): 105%
- residual activity (DYRK1A (human)): 103%
- residual activity (CAMK4 (human)): 97.8%
- residual activity (PTK2B (human)): 94.5%
- residual activity (NTRK2 (human)): 54.8%
- residual activity (AXL (human)): 93.8%
- residual activity (IRAK1 (human)): 102%
- residual activity (NTRK3 (human)): 36.3%
- residual activity (NEK4 (human)): 102%
- residual activity (WEE1 (human)): 88.6%

Structure (SMILES): COc1cc2ncnc(Nc3ccc(Oc4ccccc4)cc3)c2cc1OC
- residual activity (ACVRL1 (human)): 100%
- residual activity (MUSK (human)): 89.8%
- residual activity (MAPK12 (human)): 105%
- residual activity (AKT3 (human)): 105%
- residual activity (CSNK1D (human)): 106%
- residual activity (DDR2 (human)): 97.9%
- residual activity (OXSR1 (human)): 97.5%
- residual activity (WNK3 (human)): 87.8%
- residual activity (CHUK (human)): 101%
- residual activity (STK33 (human)): 96.3%
- residual activity (FYN (human)): 26.9%
- residual activity (DSTYK (human)): 91.6%
- residual activity (MARK3 (human)): 108%
- residual activity (MAPKAPK3 (human)): 98.9%
- residual activity (GRK6 (human)): 99.6%
- residual activity (CSNK1G1 (human)): 90%
- residual activity (TAOK3 (human)): 102%
- residual activity (HCK (human)): 13.5%
- residual activity (TSSK1B (human)): 104%
- residual activity (MAPK13 (human)): 103%
- residual activity (CDK9 CCNK (human)): 96.7%
- residual activity (PHKG2 (human)): 100%
- residual activity (TAOK2 (human)): 97.8%
- residual activity (MERTK (human)): 51.2%
- residual activity (LIMK1 (human)): 89%
- residual activity (DYRK2 (human)): 104%
- residual activity (GSK3B (human)): 109%
- residual activity (MARK2 (human)): 95.3%
- residual activity (RPS6KA4 KD2 (human)): 94.4%
- residual activity (JAK2 JH1 JH2 (human)): 95.6%
- residual activity (CSNK2A2 (human)): 98.2%
- residual activity (DAPK1 (human)): 105%
- residual activity (PRKG2 (human)): 98.3%
- residual activity (DYRK1A (human)): 84.6%
- residual activity (CAMK4 (human)): 97.8%
- residual activity (PTK2B (human)): 89%
- residual activity (NTRK2 (human)): 103%
- residual activity (AXL (human)): 98.2%
- residual activity (IRAK1 (human)): 122%
- residual activity (NTRK3 (human)): 99.7%
- residual activity (NEK4 (human)): 96.8%
- residual activity (WEE1 (human)): 99.1%

Structure (SMILES): O=C1c2ccccc2-c2nc3nnnn3nc21
- residual activity (ACVRL1 (human)): 105%
- residual activity (MUSK (human)): 107%
- residual activity (MAPK12 (human)): 92.5%
- residual activity (AKT3 (human)): 81.2%
- residual activity (CSNK1D (human)): 86.8%
- residual activity (DDR2 (human)): 58.7%
- residual activity (OXSR1 (human)): 83%
- residual activity (WNK3 (human)): 116%
- residual activity (CHUK (human)): 72%
- residual activity (STK33 (human)): 107%
- residual activity (FYN (human)): 76.2%
- residual activity (DSTYK (human)): 81.5%
- residual activity (MARK3 (human)): 78.1%
- residual activity (MAPKAPK3 (human)): 76%
- residual activity (GRK6 (human)): 58%
- residual activity (CSNK1G1 (human)): 85.2%
- residual activity (TAOK3 (human)): 90.8%
- residual activity (HCK (human)): 84%
- residual activity (TSSK1B (human)): 88.7%
- residual activity (MAPK13 (human)): 95.6%
- residual activity (CDK9 CCNK (human)): 74.4%
- residual activity (PHKG2 (human)): 96.1%
- residual activity (TAOK2 (human)): 91.9%
- residual activity (MERTK (human)): 93.1%
- residual activity (LIMK1 (human)): 65%
- residual activity (DYRK2 (human)): 113%
- residual activity (GSK3B (human)): 83.5%
- residual activity (MARK2 (human)): 94.2%
- residual activity (RPS6KA4 KD2 (human)): 72.2%
- residual activity (JAK2 JH1 JH2 (human)): 82.6%
- residual activity (CSNK2A2 (human)): 76.2%
- residual activity (DAPK1 (human)): 92.2%
- residual activity (PRKG2 (human)): 140%
- residual activity (DYRK1A (human)): 95%
- residual activity (CAMK4 (human)): 85.4%
- residual activity (PTK2B (human)): 52.1%
- residual activity (NTRK2 (human)): 29.4%
- residual activity (AXL (human)): 10.3%
- residual activity (IRAK1 (human)): 77.6%
- residual activity (NTRK3 (human)): 87.2%
- residual activity (NEK4 (human)): 96.1%
- residual activity (WEE1 (human)): 70.9%

Structure (SMILES): Cc1nc(-c2ccccc2)c(-c2ccncc2)o1
- residual activity (ACVRL1 (human)): 95.9%
- residual activity (MUSK (human)): 95.9%
- residual activity (MAPK12 (human)): 105%
- residual activity (AKT3 (human)): 106%
- residual activity (CSNK1D (human)): 44%
- residual activity (DDR2 (human)): 97.4%
- residual activity (OXSR1 (human)): 102%
- residual activity (WNK3 (human)): 106%
- residual activity (CHUK (human)): 105%
- residual activity (STK33 (human)): 99.3%
- residual activity (FYN (human)): 99.8%
- residual activity (DSTYK (human)): 91%
- residual activity (MARK3 (human)): 107%
- residual activity (MAPKAPK3 (human)): 94.7%
- residual activity (GRK6 (human)): 105%
- residual activity (CSNK1G1 (human)): 91.1%
- residual activity (TAOK3 (human)): 99%
- residual activity (HCK (human)): 98.9%
- residual activity (TSSK1B (human)): 108%
- residual activity (MAPK13 (human)): 114%
- residual activity (CDK9 CCNK (human)): 101%
- residual activity (PHKG2 (human)): 97.6%
- residual activity (TAOK2 (human)): 101%
- residual activity (MERTK (human)): 85.6%
- residual activity (LIMK1 (human)): 95.5%
- residual activity (DYRK2 (human)): 98.6%
- residual activity (GSK3B (human)): 105%
- residual activity (MARK2 (human)): 94.3%
- residual activity (RPS6KA4 KD2 (human)): 93.7%
- residual activity (JAK2 JH1 JH2 (human)): 98.4%
- residual activity (CSNK2A2 (human)): 89.8%
- residual activity (DAPK1 (human)): 124%
- residual activity (PRKG2 (human)): 85%
- residual activity (DYRK1A (human)): 98.4%
- residual activity (CAMK4 (human)): 97.2%
- residual activity (PTK2B (human)): 100%
- residual activity (NTRK2 (human)): 103%
- residual activity (AXL (human)): 91.1%
- residual activity (IRAK1 (human)): 124%
- residual activity (NTRK3 (human)): 105%
- residual activity (NEK4 (human)): 100%
- residual activity (WEE1 (human)): 91.9%
